Measured values published in BindingDB's records for doi:10.1021/jm0003891 (The R. W. Johnson Pharmaceutical Research Institute, 2001).
Where “and” joins values, the source holds several entries; their conditions need not be identical. Identical values can stand only once.

experiment: In vitro binding affinity against alpha-2D adrenergic receptor of male Wistar rat

Row | Structure (SMILES) | Ki
1 | Cc1cccc([C@H](C)c2cnc[nH]2)c1C [4-[(1S)-1-(2,3-dimethylphenyl)ethyl]-1H-imidazole] | 0.015 nM
2 | CCc1sccc1Cc1cnc[nH]1 | 0.07 nM
3 | CC(c1cnc[nH]1)c1sccc1Br (centres undefined) | 0.96 nM and 0.18 nM
4 | CC(c1cnc[nH]1)c1cscc1Br (centres undefined) | 0.08 nM
5 | CCC(c1cnc[nH]1)c1cscc1C (centres undefined) | 0.97 nM
6 | Brc1cscc1Cc1cnc[nH]1 | 0.23 nM
7 | Cc1sccc1C(C)c1cnc[nH]1 (centres undefined) | 2.3 nM
8 | c1ccc2c(Cc3cnc[nH]3)csc2c1 | 0.09 nM
9 | c1ncc(Cc2ccsc2)[nH]1 | 3.1 nM
10 | Cc1csc(Cc2cnc[nH]2)c1C | 0.17 nM
11 | Cc1cc(Cc2cnc[nH]2)c(C)s1 | 0.69 nM
12 | COC(c1cnc[nH]1)c1sccc1Br (centres undefined) | 39 nM
13 | Brc1csc(Cc2cnc[nH]2)c1Br | 0.07 nM
14 | Cc1ccc(Cc2cnc[nH]2)s1 | 3.6 nM
15 | Cc1cscc1Cc1cnc[nH]1 | 0.47 nM
16 | Clc1cc(Cc2cnc[nH]2)c(Cl)s1 | 0.088 nM
17 | Cc1csc(C(C)c2cnc[nH]2)c1C (centres undefined) | 0.75 nM

Row | Structure (SMILES) | Ki
18 | Cc1ccsc1Cc1cnc[nH]1 | 0.45 nM
19 | CCC(c1cnc[nH]1)c1sccc1C (centres undefined) | 8.3 nM
20 | Brc1ccsc1Cc1cnc[nH]1 | 0.35 nM
21 | Cc1ccsc1C1(c2cnc[nH]2)CC1 | 1000 nM
22 | COC(c1cnc[nH]1)c1cscc1C (centres undefined) | 15.9 nM
23 | CCc1cscc1C(C)c1cnc[nH]1 (centres undefined) | 0.28 nM
24 | c1ncc(Cc2cc3c(s2)CCCC3)[nH]1 | 3.7 nM
25 | CCc1cc(Cc2cnc[nH]2)c(CC)s1 | 0.4 nM
26 | Cc1cscc1C(C)c1cnc[nH]1 (centres undefined) | 0.39 nM
27 | Cc1ccsc1C(C)c1cnc[nH]1 (centres undefined) | 0.78 nM and 2.1 nM
28 | CC(c1cnc[nH]1)c1scc(Br)c1Br (centres undefined) | 0.43 nM
29 | CCc1cscc1Cc1cnc[nH]1 | 0.29 nM
30 | Cc1sccc1Cc1cnc[nH]1 | 0.44 nM
31 | Cc1csc(C)c1Cc1cnc[nH]1 | 0.1 nM
32 | c1csc(Cc2cnc[nH]2)c1 | 8.7 nM
33 | CC(C)c1cc(Cc2cnc[nH]2)c(C(C)C)s1 | 12 nM
34 | c1ccc2sc(Cc3cnc[nH]3)cc2c1 | 1.1 nM
